# Measurements: ChEMBL document CHEMBL2176988 (J Med Chem, 2012)
# What was measured:
# [1] = target: T1, Neuronal acetylcholine receptor; alpha4/beta2 (Homo sapiens, UniProt P17787+P43681); assay: Partial agonist activity at alpha4beta2 nAChR in human SH-EP1 cells assessed as calcium flux by calcium4-based FLIPR assay relative to nicotine; format: functional, cell-based
# [2] = target: T1, Neuronal acetylcholine receptor; alpha4/beta2; assay: Partial agonist activity at alpha4beta2 nAChR in human SH-EP1 cells assessed as calcium flux by calcium4-based FLIPR assay; format: functional, cell-based
# [3] = target: T2, Neuronal acetylcholine receptor; alpha3/beta4 (Homo sapiens, UniProt P30926+P32297); assay: Agonist activity at human alpha3beta4 nAChR expressed in CHO cells assessed as calcium flux by calcium4-based FLIPR assay relative to nicotine; format: functional, cell-based
# [4] = target: T2, Neuronal acetylcholine receptor; alpha3/beta4; assay: Agonist activity at human alpha3beta4 nAChR expressed in CHO cells assessed as calcium flux by calcium4-based FLIPR assay; format: functional, cell-based
# [5] = target: Neuronal acetylcholine receptor subunit alpha-7 (Homo sapiens, UniProt P36544); assay: Displacement of [3H]epibatidine from human alpha7 nAChR expressed in CHO cells after 2 hrs by liquid scintillation counting; format: cell-based
# [6] = target: T2, Neuronal acetylcholine receptor; alpha3/beta4; assay: Displacement of [3H]epibatidine from human alpha3beta4 nAChR expressed in CHO cells after 2 hrs by liquid scintillation counting; format: cell-based
# [7] = target: Neuronal acetylcholine receptor; alpha4/beta2 (Rattus norvegicus, UniProt P09483+P12390); assay: Displacement of [3H]epibatidine from alpha4beta2 nAChR in Sprague-Dawley rat cortex after 2 hrs by liquid scintillation counting
# [8] = target: T1, Neuronal acetylcholine receptor; alpha4/beta2; assay: Displacement of [3H]nicotine from alpha4beta2 nAChR in human SH-EP1 cells after 2 hrs by liquid scintillation assay; format: cell-based
# [9] = target: T1, Neuronal acetylcholine receptor; alpha4/beta2; assay: Binding affinity to alpha4beta2 nAChR; format: protein-complex assay
# [10] = target: T1, Neuronal acetylcholine receptor; alpha4/beta2; assay: Agonist activity at alpha4beta2 nAChR in human SH-EP1 cells assessed as calcium flux by calcium4-based FLIPR assay relative to nicotine; format: functional, cell-based
# [11] = target: T1, Neuronal acetylcholine receptor; alpha4/beta2; assay: Agonist activity at alpha4beta2 nAChR in human SH-EP1 cells assessed as calcium flux by calcium4-based FLIPR assay; format: functional, cell-based
# [12] = target: T1, Neuronal acetylcholine receptor; alpha4/beta2; assay: Displacement of [3H]methylcarbamylcholine from alpha4beta2 nAChR; format: protein-complex assay
# Sequence of Neuronal acetylcholine receptor subunit alpha-7 (P36544 whole entry): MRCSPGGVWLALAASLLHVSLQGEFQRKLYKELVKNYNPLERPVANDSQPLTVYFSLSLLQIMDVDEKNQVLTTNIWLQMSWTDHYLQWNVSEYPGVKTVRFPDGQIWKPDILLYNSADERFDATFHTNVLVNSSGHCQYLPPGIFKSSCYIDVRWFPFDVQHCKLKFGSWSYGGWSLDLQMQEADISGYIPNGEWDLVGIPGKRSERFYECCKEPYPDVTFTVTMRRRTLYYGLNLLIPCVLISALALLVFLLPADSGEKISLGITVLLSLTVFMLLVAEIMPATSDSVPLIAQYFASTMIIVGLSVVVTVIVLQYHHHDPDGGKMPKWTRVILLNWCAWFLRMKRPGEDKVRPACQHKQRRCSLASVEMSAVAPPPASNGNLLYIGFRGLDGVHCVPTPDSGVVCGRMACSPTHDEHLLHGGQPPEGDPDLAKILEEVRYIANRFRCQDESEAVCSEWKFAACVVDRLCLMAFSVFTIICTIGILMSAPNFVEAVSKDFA
# Sequence of Neuronal acetylcholine receptor; alpha4/beta2 (Rattus norvegicus, UniProt P09483+P12390) (P09483 whole entry): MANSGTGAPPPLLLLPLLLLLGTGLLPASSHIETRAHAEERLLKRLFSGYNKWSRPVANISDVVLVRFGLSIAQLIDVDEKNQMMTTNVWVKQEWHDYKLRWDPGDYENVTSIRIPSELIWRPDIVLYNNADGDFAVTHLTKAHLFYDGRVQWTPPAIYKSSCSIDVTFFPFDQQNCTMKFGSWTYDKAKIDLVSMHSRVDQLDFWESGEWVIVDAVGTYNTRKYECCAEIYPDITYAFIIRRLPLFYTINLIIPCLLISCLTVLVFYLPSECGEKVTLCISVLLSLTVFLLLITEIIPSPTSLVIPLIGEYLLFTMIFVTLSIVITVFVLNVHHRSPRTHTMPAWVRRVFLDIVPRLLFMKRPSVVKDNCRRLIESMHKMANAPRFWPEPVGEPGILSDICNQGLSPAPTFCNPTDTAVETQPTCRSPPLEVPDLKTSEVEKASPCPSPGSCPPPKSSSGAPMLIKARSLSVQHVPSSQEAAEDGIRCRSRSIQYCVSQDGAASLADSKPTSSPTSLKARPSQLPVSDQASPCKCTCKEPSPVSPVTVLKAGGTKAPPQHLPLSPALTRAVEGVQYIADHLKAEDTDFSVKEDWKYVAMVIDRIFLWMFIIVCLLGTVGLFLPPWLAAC
# Sequence of Neuronal acetylcholine receptor; alpha4/beta2 (Rattus norvegicus, UniProt P09483+P12390) (P12390 whole entry): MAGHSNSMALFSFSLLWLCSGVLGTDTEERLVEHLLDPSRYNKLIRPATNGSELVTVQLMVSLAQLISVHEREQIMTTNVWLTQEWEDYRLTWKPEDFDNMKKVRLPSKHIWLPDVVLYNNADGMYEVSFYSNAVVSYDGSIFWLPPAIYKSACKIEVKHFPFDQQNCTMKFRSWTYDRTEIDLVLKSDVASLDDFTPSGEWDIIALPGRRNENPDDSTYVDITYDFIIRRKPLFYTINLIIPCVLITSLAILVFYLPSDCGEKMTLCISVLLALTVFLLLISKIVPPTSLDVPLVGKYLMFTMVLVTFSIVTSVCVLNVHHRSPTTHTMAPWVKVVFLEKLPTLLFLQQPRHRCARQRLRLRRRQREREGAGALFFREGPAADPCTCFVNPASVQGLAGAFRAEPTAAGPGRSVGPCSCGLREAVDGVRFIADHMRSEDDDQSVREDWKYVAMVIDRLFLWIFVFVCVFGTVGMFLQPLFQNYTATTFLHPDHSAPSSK
# T1 sequence (P17787 whole entry): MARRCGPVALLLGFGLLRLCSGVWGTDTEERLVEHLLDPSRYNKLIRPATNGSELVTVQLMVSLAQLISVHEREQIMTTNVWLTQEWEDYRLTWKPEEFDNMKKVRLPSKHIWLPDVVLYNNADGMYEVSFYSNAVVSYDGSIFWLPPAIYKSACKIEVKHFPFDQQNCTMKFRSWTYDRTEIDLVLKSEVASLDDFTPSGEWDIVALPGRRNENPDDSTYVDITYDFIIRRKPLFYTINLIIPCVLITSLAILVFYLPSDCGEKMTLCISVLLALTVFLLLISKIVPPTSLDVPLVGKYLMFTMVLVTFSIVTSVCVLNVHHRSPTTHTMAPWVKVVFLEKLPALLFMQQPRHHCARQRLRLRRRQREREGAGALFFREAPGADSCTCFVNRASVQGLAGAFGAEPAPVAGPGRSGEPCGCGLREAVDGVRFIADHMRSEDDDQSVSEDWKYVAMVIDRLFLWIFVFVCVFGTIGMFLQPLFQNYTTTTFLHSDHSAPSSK
# T1 sequence (P43681 whole entry): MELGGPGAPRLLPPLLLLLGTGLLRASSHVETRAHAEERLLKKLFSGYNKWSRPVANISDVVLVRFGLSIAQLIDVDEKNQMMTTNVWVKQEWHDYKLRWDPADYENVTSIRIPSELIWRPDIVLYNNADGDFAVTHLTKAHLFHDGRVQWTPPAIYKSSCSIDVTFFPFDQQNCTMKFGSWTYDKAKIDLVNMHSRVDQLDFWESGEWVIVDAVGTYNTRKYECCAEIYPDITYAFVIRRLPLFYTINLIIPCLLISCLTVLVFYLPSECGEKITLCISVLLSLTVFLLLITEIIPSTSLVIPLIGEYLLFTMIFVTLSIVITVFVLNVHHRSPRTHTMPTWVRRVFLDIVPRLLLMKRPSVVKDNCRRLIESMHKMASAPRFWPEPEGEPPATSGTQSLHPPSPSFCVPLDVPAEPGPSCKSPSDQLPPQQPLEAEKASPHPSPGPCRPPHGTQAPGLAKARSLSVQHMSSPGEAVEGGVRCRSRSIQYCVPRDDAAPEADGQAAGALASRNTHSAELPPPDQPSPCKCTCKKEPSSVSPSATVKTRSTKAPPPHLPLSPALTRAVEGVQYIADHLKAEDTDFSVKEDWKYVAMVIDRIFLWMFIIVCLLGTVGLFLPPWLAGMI
# T2 sequence (P30926 whole entry): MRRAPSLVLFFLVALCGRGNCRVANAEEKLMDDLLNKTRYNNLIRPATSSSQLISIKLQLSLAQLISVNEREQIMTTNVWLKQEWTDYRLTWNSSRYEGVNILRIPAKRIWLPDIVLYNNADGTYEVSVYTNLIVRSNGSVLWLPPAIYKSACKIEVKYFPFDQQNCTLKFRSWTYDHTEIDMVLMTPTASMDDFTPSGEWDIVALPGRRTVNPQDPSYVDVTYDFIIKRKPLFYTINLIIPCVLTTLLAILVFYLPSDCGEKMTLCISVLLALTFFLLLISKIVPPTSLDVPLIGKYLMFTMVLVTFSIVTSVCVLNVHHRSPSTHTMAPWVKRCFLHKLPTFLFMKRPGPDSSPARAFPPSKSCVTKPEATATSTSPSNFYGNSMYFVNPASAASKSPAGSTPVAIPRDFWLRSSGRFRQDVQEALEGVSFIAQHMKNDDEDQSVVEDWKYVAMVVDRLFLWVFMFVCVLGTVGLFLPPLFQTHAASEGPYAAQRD
# T2 sequence (P32297 whole entry): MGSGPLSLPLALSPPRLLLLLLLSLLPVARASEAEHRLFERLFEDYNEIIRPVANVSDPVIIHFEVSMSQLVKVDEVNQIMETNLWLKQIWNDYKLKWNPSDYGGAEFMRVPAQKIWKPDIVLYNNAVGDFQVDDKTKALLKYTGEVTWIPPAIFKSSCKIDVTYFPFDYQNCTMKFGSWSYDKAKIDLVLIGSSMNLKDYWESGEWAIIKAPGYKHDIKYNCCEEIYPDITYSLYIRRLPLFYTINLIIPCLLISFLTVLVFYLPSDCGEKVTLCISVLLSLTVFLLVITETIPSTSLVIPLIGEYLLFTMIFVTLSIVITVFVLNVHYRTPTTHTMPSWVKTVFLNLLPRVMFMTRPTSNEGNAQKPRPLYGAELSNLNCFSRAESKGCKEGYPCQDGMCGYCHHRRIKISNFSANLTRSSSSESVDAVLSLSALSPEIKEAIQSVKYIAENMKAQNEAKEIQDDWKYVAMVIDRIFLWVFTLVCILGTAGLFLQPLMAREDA
SMILES,Emax [1] [%],EC50 [2] [µM],Emax [3] [%],EC50 [4] [µM],Ki [5] [µM],Ki [6] [µM],Ki [7] [nM],Ki [8] [nM],Ki [9] [nM],Emax [10] [%],EC50 [11] [µM],Ki [12] [nM]
Cc1ccc(C(=O)N2CC3CNCC(C3)C2)o1,19,8.5,11,37,> 10,> 10,240,46,–,–,–,–
CCC(=O)C1=CCCN(C)C1 [ARECOLON],–,–,–,–,–,–,–,–,5.8,–,–,–
O=C(c1occc1Br)N1CC2CNCC(C2)C1,8,8.6,20,24,> 10,6.5,130,23,–,–,–,–
O=C(c1ccc(F)o1)N1CC2CNCC(C2)C1,73,0.3,110,9.1,4.7,1.1,15,3,–,–,–,–
O=C(c1occc1Cl)N1CC2CNCC(C2)C1,3,76,26,28,> 10,8.7,120,15,–,–,–,–
O=C(C1CC1)N1C[C@@H]2CN[C@H](C2)C1,–,–,180,1.8,0.21,0.2,22,1,–,130,0.45,–
O=C(c1ccccc1)N1CC2CNCC(C2)C1,–,–,8,28,34,100,1700,920,–,8,100,–
O=C(c1cccnc1)N1CC2CNCC2C1 (stereo not given),–,–,55,29,20,4.4,160,490,–,58,30,–
O=C(c1occc1Cl)N1CC2CNCC2C1 (stereo not given),–,–,110,22,2.6,2.4,12,2,–,79,17,–
N#Cc1coc(C(=O)N2CC3CNCC3C2)c1 (stereo not given),–,–,21,31,8.6,8.7,120,27,–,22,11,–
O=C(c1ccccn1)N1CC2CNCC2C1 (stereo not given),–,–,3,51,100,21,340,250,–,44,34,–
c1cncc(N2CC3CNCC(C3)C2)c1,–,–,–,–,–,–,–,–,0.2,–,–,–
O=C(c1occc1F)N1CC2CNCC(C2)C1,15,22,54,32,> 10,> 10,210,50,–,–,–,–
CN1CCC=C(c2ccc(Cl)nc2)C1,–,–,–,–,–,–,–,–,2.2,–,–,–
O=C(c1occc1Br)N1CC2CNCC2C1 (stereo not given),–,–,83,27,6.3,3.8,8,2,–,90,4.2,–
COc1ccc(C(=O)N2CC3CNCC(C3)C2)cc1,–,–,7,28,100,27,380,60,–,6,4.3,–
N#Cc1coc(C(=O)N2CC3CNCC(C3)C2)c1,20,110,19,35,> 10,> 10,–,33,–,–,–,–
O=C(c1ccco1)N1C[C@@H]2CN[C@H](C2)C1,–,–,130,15,5.5,0.45,11,13,–,36,7.4,–
O=C(c1cc(Cl)co1)N1CC2CNCC(C2)C1,11,100,27,54,> 10,6.6,40,5,–,–,–,–
O=C(c1ccco1)N1CC2CNCC(C2)C1,–,–,57,43,8.2,8.1,29,20,–,65,1.9,–
C1=C(c2cccnc2)C2CCC(CC1)N2 (stereo not given),–,–,–,–,–,–,–,–,0.27,–,–,–
O=C(c1cc(Br)co1)N1CC2CNCC(C2)C1,34,18,13,50,> 10,9.3,57,3,–,–,–,–

SMILES,Emax [1] [%],EC50 [2] [µM],Emax [3] [%],EC50 [4] [µM],Ki [5] [µM],Ki [6] [µM],Ki [7] [nM],Ki [8] [nM],Ki [9] [nM],Emax [10] [%],EC50 [11] [µM],Ki [12] [nM]
O=C(c1ccc(Br)o1)N1CC2CNCC(C2)C1,23,8.3,28,30,> 10,6.5,100,26,–,–,–,–
O=C(c1ccncc1)N1CC2CNCC(C2)C1,–,–,6,54,> 10,> 10,57,37,–,7,19,–
O=C(c1ccncc1)N1CC2CNCC2C1 (stereo not given),–,–,33,32,15,5.4,20,67,–,56,21,–
O=C(C1CC1)N1C[C@H]2CN[C@@H](C2)C1,–,–,140,1.4,0.04,0.11,10,7,–,100,1.7,–
O=C(c1cc(Br)co1)N1CC2CNCC2C1 (stereo not given),–,–,45,36,4.6,7.7,91,16,–,15,6.5,–
O=C(c1ccc(Br)o1)N1CC2CNCC2C1 (stereo not given),–,–,25,29,> 10,7.2,240,74,–,40,22,–
O=C(c1cc(F)co1)N1CC2CNCC(C2)C1,66,0.8,93,22,> 10,3.2,–,22,–,–,–,–
O=C(c1ncco1)N1CC2CNCC2C1 (stereo not given),–,–,5,79,14,100,470,340,–,65,31,–
N#Cc1ccoc1C(=O)N1CC2CNCC2C1 (stereo not given),–,–,96,22,8.8,3.2,68,13,–,76,100,–
Cc1ncoc1C(=O)N1CC2CNCC2C1 (stereo not given),–,–,51,33,5.9,22,60,8,–,110,6.8,–
CN[C@@H](C)C/C=C/c1cccnc1,–,–,–,–,–,–,–,–,24,–,–,–
O=C(c1ccc(F)o1)N1C[C@H]2CN[C@@H](C2)C1,–,–,120,4,1.6,0.6,120,12,–,120,1.7,–
Cc1ccoc1C(=O)N1CC2CNCC2C1 (stereo not given),–,–,40,23,3.7,2.2,22,32,–,64,14,–
O=C(C1CC1)N1CC2CNCC(C2)C1,–,–,160,1.2,0.02,0.11,2,1,–,46,0.85,–
Cc1ccoc1C(=O)N1CC2CNCC(C2)C1,9,25,11,25,> 10,> 10,650,190,–,–,–,–
O=C(c1occc1F)N1CC2CNCC2C1 (stereo not given),–,–,35,44,> 10,6.5,54,23,–,96,4.8,–
C(=C1/CN2CCC1CC2)/c1cccnc1,–,–,–,–,–,–,–,–,–,–,–,2
O=C(c1ccc(Cl)o1)N1C[C@H]2CN[C@@H](C2)C1,–,–,100,14,14,5.2,120,16,–,92,3,–
N#Cc1ccc(C(=O)N2CC3CNCC(C3)C2)o1,58,7.1,64,34,> 10,21,78,8,–,–,–,–
N#Cc1ccoc1C(=O)N1CC2CNCC(C2)C1,8,26,16,21,> 10,> 10,280,39,–,–,–,–
O=C(C1CC1)N1CC2CNCC2C1 (stereo not given),–,–,130,4.9,0.84,0.67,7,4,–,110,0.47,–
